Consider eight molecules from PubChem BioAssay (NCI).

Among the test systems are 786-0 renal; A498 renal; A549 NSCLC; BT-549 breast; CAKI-1 renal; HCT-15 colon; HOP-92 NSCLC; HT29 colon; IGROV1 ovarian; K-562 leukemia; LOX IMVI melanoma; M14 melanoma; MCF7 breast; MDA-MB-435; RPMI-8226 leukemia; RXF 393 renal; SK-MEL-28 melanoma; U251 CNS; UO-31 renal; SNB-75 CNS.
Holding throughout (assay): growth of human tumour cells (NCI), 48 h

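Grown in 96-well plates, cells were treated for 48 hours with each compound at five concentrations. Insufficient inhibition: endpoint recorded as highest concentration tested. At the TGI there is no net growth.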

As to `C[N+](C)(C)CCCSc1nc2ccccc2[nH]1`, the TGI with 786-0 renal, in the assay with A498 renal, in the assay on A549 NSCLC, in the assay on BT-549 breast, in the assay on CAKI-1 renal and with HCT-15 colon was above 100 µM each time. For the same molecule, the TGI in the assay on HOP-92 NSCLC, with HT29 colon, in the assay on IGROV1 ovarian, in the assay with K-562 leukemia, in the assay with LOX IMVI melanoma and in the assay on M14 melanoma was above 100 µM each time. The TGI in the assay on MCF7 breast, in the assay on MDA-MB-435, in the assay with RPMI-8226 leukemia, with RXF 393 renal, in the assay with SK-MEL-28 melanoma and in the assay on U251 CNS was above 100 µM throughout. This molecule also registered a TGI in the assay on UO-31 renal above 100 µM.

On to `O=c1cc(N2CCNCC2)nc2ccccn12`, for which the TGI in the assay on 786-0 renal, in the assay with A498 renal, in the assay with A549 NSCLC, in the assay with BT-549 breast, in the assay on CAKI-1 renal and in the assay with HCT-15 colon was above 100 µM each time. Moreover, the TGI in the assay on HOP-92 NSCLC, in the assay with HT29 colon, in the assay with IGROV1 ovarian, in the assay with K-562 leukemia, in the assay on LOX IMVI melanoma and with M14 melanoma was above 100 µM each time. The TGI with MCF7 breast, with MDA-MB-435, with RPMI-8226 leukemia, with RXF 393 renal, in the assay with SNB-75 CNS and with U251 CNS was above 100 µM throughout. For the same molecule, the TGI with UO-31 renal is above 100 µM.

Regarding `N#CC12CNCC1CN=N2` (stereo not drawn), the TGI in the assay with 786-0 renal, in the assay with A498 renal, in the assay with A549 NSCLC, with BT-549 breast, in the assay on CAKI-1 renal and with HCT-15 colon was above 100 µM in each case. Moreover, the TGI in the assay with HOP-92 NSCLC, in the assay on HT29 colon, with IGROV1 ovarian, with K-562 leukemia, with LOX IMVI melanoma and with MCF7 breast was above 100 µM throughout. Further, the TGI in the assay on MDA-MB-435, with RXF 393 renal, in the assay on SK-MEL-28 melanoma, in the assay on SNB-75 CNS, in the assay with U251 CNS and with UO-31 renal was above 100 µM throughout.

Take `CC(C)(C)OC(=O)CN1C(=O)CC1CC(=O)c1ccccc1` (stereo not drawn): the TGI is 32.9 µM with 786-0 renal; 64 µM with A498 renal; above 100 µM in the assay with A549 NSCLC; 35.5 µM in the assay on BT-549 breast; 49.4 µM in the assay on CAKI-1 renal; 37.5 µM with HCT-15 colon. Further, the TGI in the assay on HOP-92 NSCLC is above 100 µM; in the assay with HT29 colon, 37.4 µM; in the assay with IGROV1 ovarian, 32.2 µM; with K-562 leukemia, 34.2 µM; with LOX IMVI melanoma it was 31.3 µM; in the assay on M14 melanoma, 30.4 µM. The TGI came to 36.1 µM with MCF7 breast; 41.2 µM in the assay on MDA-MB-435; 15.3 µM in the assay with RPMI-8226 leukemia; 43.5 µM in the assay on RXF 393 renal; 36.7 µM in the assay on SK-MEL-28 melanoma; 29.4 µM in the assay with U251 CNS. This molecule came in with a TGI with UO-31 renal of 31.4 µM.

As for `Cc1ccc(S(=O)(=O)c2ccsc2NC(=O)C(F)(F)F)cc1`, the TGI was above 100 µM in the assay with 786-0 renal; above 100 µM with A498 renal; above 100 µM in the assay with A549 NSCLC; above 100 µM in the assay with BT-549 breast; 82.6 µM with CAKI-1 renal; above 100 µM in the assay with HCT-15 colon. Further, the TGI with HOP-92 NSCLC, in the assay with HT29 colon, with IGROV1 ovarian, with LOX IMVI melanoma, in the assay with M14 melanoma and with MCF7 breast was above 100 µM in each case. Moreover, the TGI in the assay with MDA-MB-435 is above 100 µM; in the assay on RPMI-8226 leukemia, 31 µM; with SK-MEL-28 melanoma it was above 100 µM; in the assay on SNB-75 CNS it was 77.8 µM; in the assay on U251 CNS, above 100 µM; in the assay with UO-31 renal, 96.1 µM.

For the molecule `Oc1c2cc(Cl)cc1COCc1cc(Cl)cc(c1O)COCc1cc(Cl)cc(c1O)COC2`, the TGI is 37.7 µM in the assay on 786-0 renal; above 100 µM with A498 renal; above 100 µM in the assay with A549 NSCLC; above 100 µM with BT-549 breast; above 100 µM with HCT-15 colon; 92.2 µM in the assay on HOP-92 NSCLC. Besides, the TGI with IGROV1 ovarian was above 100 µM; in the assay on K-562 leukemia, above 100 µM; in the assay on LOX IMVI melanoma, above 100 µM; in the assay on M14 melanoma, 64.7 µM; in the assay on MCF7 breast, above 100 µM; in the assay on MDA-MB-435 it was above 100 µM. For the same molecule, the TGI with RPMI-8226 leukemia was above 100 µM; in the assay with RXF 393 renal, above 100 µM; in the assay on SK-MEL-28 melanoma, above 100 µM; in the assay on SNB-75 CNS, 63.4 µM; in the assay with U251 CNS, above 100 µM; in the assay on UO-31 renal, above 100 µM.

Take `Nc1nc(Cl)c(CO)c(NCC2(CO)CC(CCc3ccccc3)C2)n1` (stereo not drawn): the TGI in the assay with 786-0 renal was above 100 µM; in the assay on A498 renal, above 100 µM; in the assay with A549 NSCLC, 34.5 µM; in the assay on BT-549 breast it was 71.1 µM; with CAKI-1 renal, above 100 µM; with HCT-15 colon it was above 100 µM. Moreover, the TGI in the assay with HOP-92 NSCLC amounted to 73.1 µM; in the assay on HT29 colon it was 81.6 µM; with K-562 leukemia, 43.1 µM; with LOX IMVI melanoma, 50.4 µM; in the assay with MCF7 breast, 45.5 µM; with MDA-MB-435, 26.5 µM. In addition, the TGI in the assay with RPMI-8226 leukemia was 35.2 µM; in the assay on RXF 393 renal, 63 µM; with SK-MEL-28 melanoma, 47 µM; in the assay on SNB-75 CNS, 51.2 µM; with U251 CNS, above 100 µM; with UO-31 renal, 68.8 µM.

`N#CC1C(=O)N(c2ccccc2)NC12OC(=O)c1ccncc12` (stereo not drawn): the TGI with 786-0 renal, with A498 renal, with A549 NSCLC, with BT-549 breast, in the assay on CAKI-1 renal and in the assay on HCT-15 colon was above 20 µM in each case. For the same molecule, the TGI in the assay with HOP-92 NSCLC, with HT29 colon, with IGROV1 ovarian, with K-562 leukemia, in the assay on LOX IMVI melanoma and in the assay on M14 melanoma was above 20 µM each time. The TGI with MCF7 breast, in the assay with MDA-MB-435, in the assay with RPMI-8226 leukemia, with RXF 393 renal, in the assay with SK-MEL-28 melanoma and in the assay with U251 CNS was above 20 µM in each case. In addition, in the assay on UO-31 renal, the TGI is above 20 µM.
